Reference: US8507541B2, “N-hydroxyamidinoheterocycles as modulators of indoleamine 2,3-dioxygenase” (Incyte Corporation, priority 2006, dated 2013)

How the values were obtained:
P815 tumor = conditions: pre-immunized immune-competent mice, P815 (Uyttenhove et al); cited from earlier work
LLC tumors = LLC tumors in C57Bl/6 mice, versus placebo (Friberg et al); cited from earlier work
[1] = molecular target: T1, Human idoleamine 2,3-dioxygenase (IDO) (Homo sapiens, UniProt P14902); assay: Human indoleamine 2,3-dioxygenase (IDO) enzyme assay; format: biochemical; conditions: 95 nM IDO, 2 mM D-Trp, pH 6.5, room temperature, absorbance at 321 nm
T1 construct: His tag (N); made in house; host or cells: E. coli
Description: Human idoleamine 2,3-dioxygenase (IDO) with an N-terminal His tag was expressed in E. coli and purified to homogeneity. IDO catalyzes the oxidative cleavage of the pyrrole ring of the indole nucleus of tryptophan to yield N′-formylkynurenine. The assays were performed at room temperature as described in the literature using 95 nM IDO and 2 mM D-Trp in the presence of 20 mM ascorbate, 5 μM methylene blue and 0.2 mg/mL catalase in 50 mM potassium phosphate buffer (pH 6.5). The initial reaction rates were recorded by continuously following the absorbance increase at 321 nm due to the formation of N′-formylkynurenine. […] The symbol “+” indicates IC50<1000 […].

T1 sequence (P14902 whole entry): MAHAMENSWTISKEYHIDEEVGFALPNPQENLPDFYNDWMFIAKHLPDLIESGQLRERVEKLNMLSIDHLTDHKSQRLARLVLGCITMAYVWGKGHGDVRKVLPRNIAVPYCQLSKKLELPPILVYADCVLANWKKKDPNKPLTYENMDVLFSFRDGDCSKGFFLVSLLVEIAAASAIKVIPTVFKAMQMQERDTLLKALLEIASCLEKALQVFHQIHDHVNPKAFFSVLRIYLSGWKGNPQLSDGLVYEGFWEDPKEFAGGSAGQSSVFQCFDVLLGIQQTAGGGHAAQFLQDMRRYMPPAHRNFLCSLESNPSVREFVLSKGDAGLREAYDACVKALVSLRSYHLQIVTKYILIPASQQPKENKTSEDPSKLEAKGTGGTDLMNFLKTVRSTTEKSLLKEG

IC50 [1] [µM]	SMILES	growth of tumors (P815 tumor)	formation of tumors (LLC tumors)
–	Cn1cc(C[C@H](N)C(=O)O)c2ccccc21 [Example 1-MT, 1-methyl-tryptophan]	inhibited	markedly delayed
> 10	ON=C(Nc1ccc(F)c(Cl)c1)c1cc(OCCCN2CCCC2)no1 [Example 2, N-(3-Chloro-4-fluorophenyl)-N′-hydroxy-3-(3-pyrrolidin-1-ylpropoxy)isoxazole-5-carboximidamide]	–	–
> 10	ON=C(Nc1ccc(F)c(Cl)c1)c1cc(N2CCOCC2)no1 [Example 3, N-(3-Chloro-4-fluorophenyl)-N′-hydroxy-3-morpholin-ylisoxazole-5-carboximidamide]	–	–
> 10	CC(=O)Nc1cc(C(=NO)NCc2cc(Cl)ccc2C)on1 [Example 22, N-[5-[(5-chloro-2-methylbenzyl)amino](hydroxyimino)methyl]isoxazol-3-ylacetamide]	–	–
